US12090158B2, “Medicine for diabetic peripheral neuropathy” (NIPPON CHEMIPHAR CO., LTD., priority 2018, dated 2024)

What was measured:
rats (SD, male) = experiment: Rota-rod test, effect on motor coordination; format: in vivo, rat; details: 60 mg/kg oral once, three hours after administration; for walking duration (time to fall from the rod): 10 rpm, cut-off 120 seconds
Protocol: As an index for studying a central inhibitory effect and a muscle relaxation effect, an effect on motor coordination was studied using a Rota-rod test.
In each of the groups, the number of samples was 8. Before a test, a rotation speed was set to 10 rpm using a mark on a rotating disk of Rota-rod (47700, UGO BASILE S.R.L.). A rat was gently placed on the rotating rod, and it was confirmed that the rat was placed on the rod stably. Thereafter, time (seconds) for the rat to fall from the rod was recorded. A cut-off value was 120 seconds. Trials were performed before administration of a test substance and three hours after the administration. At each measurement time, trials were performed up to three times. In a case where the cut-off value was reached, 120 seconds was taken as a walking duration at the time. In a case where the cut-off value was not reached in all three trials, an average of the three values was taken as a walking duration at the time.

[1] = system: STZ-induced diabetic neuropathy model rat; experiment: STZ-induced diabetic neuropathy model rat, von Frey up-down stimulation method, 50% escape response threshold; format: in vivo; details: oral, compared with STZ control group
Protocol: As one embodiment, the study was performed by administering the compound of the present invention to an STZ-induced diabetic neuropathy model rat, then giving a stimulus thereto by an up-down stimulation method, and calculating a 50% escape response threshold.
A model was prepared by intravenously administering STZ as a diabetes-inducing substance to a rat. In a test, an animal that had developed diabetic neuropathy 35 days after STZ administration was used.
On the day before administration of STZ and the day before administration of a test substance, about 100 μL of blood was collected from the tail vein using a winged injection needle equipped with a heparin-treated capillary. The obtained blood was centrifuged with a centrifuge [centrifugation conditions: 4° C., 3,000 rpm (×2,150 g), 15 min], and then plasma was obtained. The blood glucose level of the obtained plasma was measured using a hexokinase G-6-PDH method using an automatic biochemical analyzer. Note that the amount of the obtained plasma was very small, and therefore the measurement was performed by diluting the plasma 5 times with physiological saline. […]
35 days after administration of STZ, before administration, a 50% escape response threshold was measured, and the animals were divided into groups each including two animals such that the groups had the same average of escape response thresholds and the same average of body weights (severity of 50% escape response threshold: 8, severity of weight: 2). […]
Pain was evaluated during a pre-breeding period, and 35 days after administration of STZ, before administration of a test substance and one, two, four, and six hours after administration of the test substance. […] From the result, a 50% escape response threshold was calculated by the following method for calculating a 50% escape response threshold (the 50% escape response threshold was rounded off to two decimal places). […]

SMILES | walking duration (time to fall from the rod) (rats (SD, male)) | 50% escape response threshold ([1]; 3 mg/mL group, two hours and four hours after administration) | 50% escape response threshold ([1]; 10 mg/mL group, one hour to four hours after administration) | 50% escape response threshold ([1]; 30 mg/mL group, one hour to four hours after administration) | effect on motor coordination (rats (SD, male); Rota-rod)
CC(C)C[C@H](CN)CC(=O)O [pregabalin, reference compound] | 22 ± 5 s | – | – | – | –
O=C1CC(=O)N(c2ccc(NC(=O)c3ccccc3I)cc2)c2ccc3ccccc3c2N1 [Example 48 (Compound), 5-[4-(2-iodobenzoylamino)phenyl]-1H-naphtho [1,2-b] [1,4]diazepine-2,4 (3H,5H)-dione] | 120 s | significantly increased | significantly increased | significantly increased | no effect on motor coordination
